How the values were obtained:
[1] = biological target: T1, WT-TTR (Homo sapiens, UniProt P02766); test: Quantum yield measurement with WT-TTR; assay type: physicochemical; details: compound 7.2 μM
T1 construct: composed of 127-residue β-sheet-rich subunits; made in house; host or cells: E. coli
Procedure: (§1) The covalent TTR modifier A1 or A2 or the non-covalent TTR ligand B2 (15 μL of a 1.44 mM solution in DMSO, final concentration: 7.2 μM) was added to 3 mL of a solution of WT-TTR homotetramer (0.2 mg/mL, 3.6 μM) in 10 mM phosphate, 100 mM KCl and 1 mM EDTA (pH 7.0 phosphate buffer). The samples were vortexed, and incubated for 18 hours at 25° C. Quantum yields were measured by following the instructions at the web site: jobinyvon.com/usadivisions/Fluorescence/applications/quantumyieldstrad.pdf. Quinine bisulfate in 0.5 M H2SO4 was used as a reference for comparison (Φf=0.546). [Crosby et al., J. Phys. Chem. 1971, 75, 991-1024.]

[2] = biological target: T2, K15A-TTR (Homo sapiens, UniProt P02766, K35A); test: Fluorimetric assay with recombinant K15A-TTR; assay type: binding; details: B2 7.2 μM
T2 construct: composed of 127-residue β-sheet-rich subunits; made in house
Procedure: [The source words this procedure for another variant and says it was used here with some conditions changed.] The excitation spectra are shown with dotted traces (λmax=328 nm), and emission spectra are adjacently (λmax=384 nm). Very low fluorescence resulted from 328 nm excitation of stilbene Compounds 4 or 2 alone in buffer (FIGS. 4A and 4B; traces substantially on the X-axis).
WT-TTR was expressed in an E. coli expression system and purified as described previously. [Lashuel et al., Biochemistry 1999, 38, 13560-13573] The covalent TTR modifiers (A1 or A2) or the non-covalent TTR ligand B2 (5 μL of a 1.44 mM solution in DMSO, final concentration: 7.2 μM) were added to 1 mL of a solution of WT-TTR homotetramer (0.2 mg/mL, 3.6 μM) in 10 mM phosphate, 100 mM KCl and 1 mM EDTA (pH 7.0 phosphate buffer) in a 2 mL Eppendorf tube. The samples were vortexed, and incubated for 18 h at 25° C. The fluorescence changes were monitored using a Varian Cary 50 spectrofluorometer at 20° C. in a 1 cm path length quartz cell. The excitation slit was set at 5 nm and the emission slit was set at […]. The samples were excited at 328 nm and the emission spectra were collected from 350 to 550 nm.
WT-TTR was expressed and purified from an E. coli expression system as described previously. [Lashuel et al., Biochemistry 1999, 38:13560]. The covalent modifiers (Compounds 4 or 2) or the non-covalent TTR ligand Compound B2 (5 μL of a 1.44 mM solution in DMSO) were added to 1 mL of a solution of WT-TTR (0.2 mg/mL, 3.6 μM) in 10 mM phosphate, 100 mM KCl and 1 mM EDTA (pH 7.0) in a 2 mL Eppendorf tube. The samples were vortexed, and incubated for 18 hours at 25° C. The fluorescence changes were monitored using a Varian Cary 50 spectrofluorometer at 20° C. in a 1 cm path length quartz cell. The excitation slits was set at 5 nm and the emission slits was set at […]. The samples were excited at 328 nm and the emission spectra were collected from 330 to 550 nm (FIG. 4). The time-dependent fluorescence changes were monitored in similar manner (FIG. 5).

[3] = Quantum yield measurement in buffer; assay type: physicochemical
Procedure: as §1

[4] = Photoisomerization upon irradiation (312 nm, 10 seconds); assay type: physicochemical; details: 312 nm
Procedure: Although TTR can bind to small molecules composed of two aromatic rings when the tethered rings are up to 40° out of plane {based on TTR-stilbene crystal structures [Klabunde et al., Nat. Struct. Biol. 2000, 7, 312-321; Connelly et al., Curr. Opin. Struc. Biol. 2010, 20, 54-62; Johnson et al., J. Med. Chem. 2008, 51, 6348-6358; Choi et al., J. Am. Chem. Soc. 2010, 132, 1359-1370; Choi et al., Nat. Chem. Biol. 2010, 6, 133-139; Baures et al., Bioorg. Med. Chem. 1998, 6, 1389-1401; and Baures et al., Bioorg. Med. Chem. 1999, 7, 1339-1347]}, it would be energetically unfavorable to bind the excited singlet state in a conformation where the two aryl rings are oriented perpendicular to one another. Thus, we propose that the increase in fluorescence quantum yield of B2 from 0.09 in buffer to 0.55 in complex with TTR results from the resculpted excited singlet state energy surface of the stilbene in complex with TTR, such that the trans-conformer is the only state of relatively low potential energy [Gorner, H.; Kuhn, H. J. Adv, Photochem. 1995, 19, 1-117; Malkin et al., J. Phys. Chem. 1964, 68, 1153-1163; Saltiel, J. J. Am. Chem. Soc. 1967, 89, 1036-1037; Saltiel et al., J. Am. Chem. Soc. 1972, 94, 6445-6457; Saltiel et al., J. Am. Chem. Soc. 1979, 101, 2982-2996; and Saltiel et al., J. Am. Chem. Soc. 1968, 90, 4759-4760] inhibiting photoisomerization-based relaxation of B2. That B2 binding to TTR inhibits B2 photoisomerization is consistent with the observation that the irradiation of B2 in buffer (Life Technologies, TFX-35M, 312 nm) for 10 seconds affords 60% of the cis isomer, along with other minor photoreaction products, whereas irradiation of B2 bound to TTR yields only 20% cis isomer.
It appears that the increase in fluorescence quantum yield of A2 from 0.00 in buffer to 0.27 in the TTR-(stilbene)n≦2 conjugate is only partly explained by the mechanism proposed for B2 [Gorner, H.; Kuhn, H. J. Adv, Photochem. 1995, 19, 1-117; Malkin et al., J. Phys. Chem. 1964, 68, 1153-1163; Saltiel, J. J. Am. Chem. Soc. 1967, 89, 1036-1037; Saltiel et al., J. Am. Chem. Soc. […]

[5] = system: WT-TTR cytotoxicity in human IMR-32 neuroblastoma cells; details: cited from earlier work
[6] = system: familial amyloid polyneuropathy (FAP); details: phase II/III placebo-controlled; cited from earlier work
[7] = biological target: T1, WT-TTR; test: RP-HPLC analysis of conjugation to recombinant WT-TTR; assay type: binding; details: data not shown
Procedure: The ability of candidate covalent kinetic stabilizers Compounds 1-4 to form a chemoselective amide bond with the K15 residue of WT-TTR was assessed by incubating the recombinant WT-TTR tetramer (3.6 μM) with Compounds 1-4 (7.2 μM, the minimum concentration required to covalently modify both T4 binding sites) for 18 hours at 25° C. The stilbene-TTR conjugate was quantified by reverse-phase (RP)-HPLC using a denaturing acetonitrile gradient.
Recombinant WT-TTR was expressed as described previously [Lashuel et al., Biochemistry 38:13560-13573 (1999)]. For analysis of test compounds with TTR, each compound (1.5 μL in DMSO, 1.44 mM) was added to 300 μL of WT-TTR or K15A mutant TTR (3.6 μM, 10 mM sodium phosphate, 100 mM KCl, 1 mM EDTA, pH 7.0). The samples were vortexed, and incubated for 18 hours at 25° C. Reverse phase high performance liquid chromatography (RP-HPLC) was performed on a Water 600 E multi-solvent delivery system, using a Waters 486 tunable absorbance detector, a 717 autosampler, and a ThermoHypersil Keystone Betabasic-18 column μ150 Å pore size, 3 μm particle size, and mobile phase A; 0.1% TFA in 95% H2O+5% CH3CN and mobile phase B, 0.1% TFA in 95% CH3CN+5% H2O). Linear gradients were run from 100:0 to 0:100 A:B for 27 minutes.

## CCCNC(=O)c1cc(/C=C/c2cc(C)c(O)c(C)c2)cc(N(C)C)c1 [Compound B2, (E)-3-(dimethylamino)-5-(4-hydroxy-3,5-dimethylstyryl)-N-propylbenzamide]
[1]
  fluorescence quantum yield in complex or conjugate with TTR: 0.55
[2]
  increase in fluorescence intensity upon binding to K15A-TTR (B2): approximately 4 fold
[3]
  fluorescence quantum yield in buffer: 0.09
[4]
  % cis isomer after irradiation bound to TTR: 20%
  % cis isomer after irradiation in buffer: 60%

## Oc1ccc(C=Cc2cc(O)cc(O)c2)cc1 [resveratrol]
[5]
  inhibition of amyloid-formation-associated cytotoxicity (literature): known to inhibit amyloid-formation-associated cytotoxicity

## O=C(O)c1ccc2nc(-c3cc(Cl)cc(Cl)c3)oc2c1 [Tafamidis]
[6]
  clinical efficacy in familial amyloid polyneuropathy: halt the progression of familial amyloid polyneuropathy

## Cc1cc(/C=C/c2ccc(C(=O)Oc3ccc(F)cc3)cc2)cc(C)c1O [Compound 7]
[7]
  modification yield of the WT-TTR subunits (in words): lower modification yield
